Holding throughout (type): functional
The nature of assay [1]: Antioxidant activity assessed as ferric ion reducing activity measured as trolox equivalents by FRAP assay.
Assay [2] has as its system Radical scavenging activity. The assay can be described thus: Antioxidant activity assessed as DPPH radical scavenging activity after 30 min. (In general: DPPH is a stable violet radical that fades when it is reduced.)
Assay [3] is described as follows: Antioxidant activity assessed as ABTS radical scavenging activity.
In assay [4] the test system is Mus musculus. The assay can be described thus: Hypolipidemic activity in high cholesterol diet fed Mus musculus KM (mouse) assessed as triglyceride level at 150 mg/kg, ig for 10 days (reference value: 0.9359 +/- 0.2817 mmol/l). The note with it: route intragastric.
Assay [5] deals with Mus musculus. The experiment in a line: Hypolipidemic activity in high cholesterol diet fed Mus musculus KM (mouse) assessed as low density lipoprotein cholesterol at 150 mg/kg, ig for 10 days (reference value: 4.2972 +/- 1.1725 mmol/l). Conditions: route intragastric.
The test system of assay [6] is Mus musculus. The assay can be described thus: Hypolipidemic activity in high cholesterol diet fed Mus musculus KM (mouse) assessed as high density lipoprotein cholesterol at 150 mg/kg, ig for 10 days (reference value: 2.6953+/- 0,58099 mmol/l). Conditions: route intragastric.
In assay [7] the test system is Mus musculus. The experiment in a line: Hypolipidemic activity in high cholesterol diet fed Mus musculus KM (mouse) assessed as total cholesterol level at 150 mg/kg, ig for 10 days (reference value: 7.3219 +/- 1.00196 mmol/l). Conditions: route intragastric.
For assay [8], the system named is Mus musculus. The experiment in a line: Antioxidant activity in high cholesterol diet fed Mus musculus KM (mouse) assessed as MDA level in liver at 150 mg/kg, ig for 10 days (reference value: 13.6188 +/- 4.2522 nmol/ml). Conditions: route intragastric.
The subject of assay [9] is Mus musculus. The assay can be described thus: Hypolipidemic activity in high cholesterol diet fed Mus musculus KM (mouse) assessed as triglyceride level at 70 mg/kg, ig for 10 days (reference value: 1.391 +/- 0.351 mmol/l). The note with it: route intragastric.
For assay [10], the system named is Mus musculus. The assay can be described thus: Hypolipidemic activity in high cholesterol diet fed Mus musculus KM (mouse) assessed as high density lipoprotein cholesterol at 70 mg/kg, ig for 10 days (reference value: 1.028 +/- 0.139 mmol/l). Conditions: route intragastric.
Assay [11] relates to Mus musculus. The experiment in a line: Hypolipidemic activity in high cholesterol diet fed Mus musculus KM (mouse) assessed as total cholesterol level at 70 mg/kg, ig for 10 days (reference value: 4.402 +/- 0.8 mmol/l). Conditions: route intragastric.
Assay [12] has as its system Mus musculus. The experiment in a line: Antioxidant activity in high cholesterol diet fed Mus musculus KM (mouse) assessed as MDA level in liver at 70 mg/kg, ig for 10 days (reference value: 9.95 +/- 0.15 nmol/ml). Conditions: route intragastric.
Assay [13] concerns Mus musculus. The assay can be described thus: Hypolipidemic activity in high cholesterol diet fed Mus musculus KM (mouse) assessed as low density lipoprotein cholesterol at 70 mg/kg, ig for 10 days (reference value: 3.386 +/- 0.958 mmol/l). The note with it: route intragastric.

SMILES strings stand for the structures. Values after ≈ are worked out from the molar mass of the structure shown. Active and inactive are the calls of the source. No cut-off for these calls is given here.

Broadly, the IC50 is the midpoint of a concentration-inhibition curve.

For the compound `COc1cc([C@@H]2OC[C@@H]3[C@H]2CO[C@H]3c2ccc(O)c(OC)c2)ccc1O` [(+)-PINORESINOL], the Activity in assay [1] was 2580 µmol/g. Moreover, the values for the half-inhibitory concentration (IC50) in assay [2] and in assay [3] were 8.66 µg/mL (≈ 24.2 µM) and 3.08 µg/mL (≈ 8.59 µM), respectively.
On the same counts, the results for `Cc1cc(C(C)(C)C)c(O)c(C(C)(C)C)c1` [BUTYLATED HYDROXYTOLUENE] are 1750 µmol/g, 17.21 µg/mL (≈ 78.1 µM) and 6.04 µg/mL (≈ 27.4 µM).
For the compound `COc1cc([C@H]2OC[C@H]3[C@@H]2CO[C@H]3c2ccc(OC)c(OC)c2)ccc1O` [PHILLYGENIN], the Activity in the assay on Mus musculus [4] stood at 0.3249 mmol/L; in assay [1] it was 2440 µmol/g; in the assay with Mus musculus [5], 3.1861 mmol/L; in the assay on Mus musculus [6] it was 2.4571 mmol/L; in the assay with Mus musculus [7], 7.2123 mmol/L; in the assay on Mus musculus [8], 7.9321 nmol/mL. Moreover, the results for the IC50 in assay [2] and in [3] were 15.51 µg/mL (≈ 41.6 µM) and 3.58 µg/mL (≈ 9.61 µM), respectively.
For `O=c1c(O)c(-c2ccc(O)c(O)c2)oc2cc(O)cc(O)c12` [QUERCETIN], the result in assay [1] was inactive. In addition, in assay [2], the IC50 is 1.03 µg/mL (≈ 3.41 µM).
Regarding `C[C@@H]1O[C@@H](OC[C@H]2O[C@@H](Oc3c(-c4ccc(O)c(O)c4)oc4cc(O)cc(O)c4c3=O)[C@H](O)[C@@H](O)[C@@H]2O)[C@H](O)[C@H](O)[C@H]1O` [RUTIN], the Activity came to 0.828 mmol/L with Mus musculus [9]; 1.422 mmol/L in the assay on Mus musculus [10]; 3.124 mmol/L with Mus musculus [11]; 5.1 nmol/mL in the assay on Mus musculus [12]; 2.639 mmol/L with Mus musculus [13]. Also, the result in assay [1] was inactive. Also, the IC50 came to 1.83 µg/mL (≈ 3 µM) in assay [2] and 4.65 µg/mL (≈ 7.62 µM) in assay [3].
With `C[C@H]1[C@H](C)CC[C@]2(C(=O)O)CC[C@]3(C)C(=CC[C@@H]4[C@@]5(C)CC[C@H](O)C(C)(C)[C@@H]5CC[C@]43C)[C@H]12` [URSOLIC ACID], the Activity stood at 0.4322 mmol/L in the assay with Mus musculus [4]; 13.6 µmol/g in assay [1]; 1.5655 mmol/L in the assay with Mus musculus [5]; 2.4373 mmol/L with Mus musculus [6]; 5.2196 mmol/L in the assay with Mus musculus [7]; 7.326 nmol/mL in the assay with Mus musculus [8]. The half-maximal inhibitory concentration (IC50) entry in assay [2] and in assay [3] was “Not Active” each time.

The record behind these values is ChEMBL document CHEMBL3044792, “In vitro antioxidant properties and in vivo lowering blood lipid of Forsythia suspense leaves” (Med Chem Res, 2010).
